Data as given in patent US9597407B2, “Targeted antimicrobial moieties” (C3 Jian, Inc., priority 2009, dated 2017).
“Also recorded” adds a separate entry of the source.

How the values were obtained:
[1] = test system: microorganisms; assay: Peptide activities: binding, antimicrobial, growth or phenotype altering (Table 8)
Excerpt: In certain embodiments, peptides described herein can have multiple activities. Thus for example, a peptide can have both binding/targeting activity and antimicrobial activity. Such peptides can be used, e.g., in a chimeric construct, for any or all of these properties. Thus, for example, a peptide designated “B” in Table 8 can be used as a targeting peptide. If it is also designated G or M it can also be used for antimicrobial activity.

[2] = test system: bacteria; assay: Binding of targeting peptides to microorganisms (Table 3); conditions: preferably 1x PBS
[3] = test system: microorganisms; assay: Morphology, biofilm and growth disruption by peptides (Table 5); type: cell-based; design: key: A: Peptide aggregates; B: Less hyphal formation; Clumps; Diffuse clumps and small polyps; F: Diffuse growth; H: Thin; I: Growth inhibition; Microcolony formation; Rippled; Small polyps; Thick; W: Halo formation on top, microlonies on bottom
Excerpt: In certain embodiments peptides that induce alterations in phenotype or other biological activities can also be used as antimicrobial effector moieties.

[4] = microorganism the targeting peptide binds, binding in aqueous buffers that varied with peptide solubility
[5] = microorganism bound by the targeting peptide, binding in aqueous buffers chosen by peptide solubility

Substance	Activities [1]	Target(s) [2, 4]	Organism, effect ([3]; C. jeikeium)	Organism, effect ([3]; M. luteus)	Organism, effect ([3]; MRSA)	Organism, effect ([3]; S. epidermidis)	Organism, effect ([3]; S. mutans)	Organism, effect ([3]; S. pneumoniae)	Organism, effect ([3]; B. subtilis)	Organism, effect ([3]; C. albicans)	Organism, effect ([3]; C. jejuni)	Organism, effect ([3]; E. coli)	Organism, effect ([3]; E. faecalis)	Organism, effect ([3]; P. aeruginosa)	Target(s) [2, 5]
PF-036 (ILNRLSRIVSNEVTSLIYSLK; Peptide with targeting and/or antimicrobial activity)	G B	S. epidermidis and M. luteus and P. mirabilis and E. coli and C. albicans and MRSA and S. pneumoniae and C. jejuni	C. jeikeium (A)	M. luteus (A)	MRSA (R)	S. epidermidis (S)	–	–	–	–	–	–	–	–	–
PF-037 (MTKKRRYDTTEFGLAHSMTAKITLHQALYK; Peptide with targeting and/or antimicrobial activity)	G B	S. epidermidis and M. luteus and P. aeruginosa and C. albicans and MRSA and S. pneumoniae and E. faecalis and C. jeikeium	C. jeikeium (D)	M. luteus (C)	MRSA (R)	S. epidermidis (D)	–	–	–	–	–	–	–	–	–
PF-041 (ELLVILPGFI; Peptide with targeting and/or antimicrobial activity)	G B	MRSA	–	–	MRSA (M)	S. epidermidis (R)	–	–	–	–	–	–	–	–	–
PF-043 (MIKNETAYQMNELLVIRSAYAK; Peptide with targeting and/or antimicrobial activity)	G B	M. luteus; also recorded: C. jejuni	C. jeikeium (A)	M. luteus (C)	MRSA (R)	S. epidermidis (D)	–	–	–	–	–	–	–	–	–
PF-045 (LDINDYRSTY; Peptide with targeting and/or antimicrobial activity)	G B	S. epidermidis; also recorded: E. coli; also recorded: E. faecalis; also recorded: C. jejuni	–	–	MRSA (S)	–	–	–	–	–	–	–	–	–	–
PF-046 (LDFYLTKHLTLML; Peptide with targeting and/or antimicrobial activity)	G B	E. coli; also recorded: E. faecalis; also recorded: C. jeikeium	C. jeikeium (R)	–	MRSA (R)	S. epidermidis (C)	–	–	–	–	–	–	–	–	–
PF-048 (LYFAFKKYQERVNQAPNIEY; Peptide with targeting and/or antimicrobial activity)	G B	S. epidermidis and M. luteus and E. coli and MRSA and C. jeikeium and C. jejuni	C. jeikeium (S)	–	MRSA (W)	S. epidermidis (D)	–	–	–	–	–	–	–	–	–
PF-049 (AYYLKRREEKGK; Peptide with targeting and/or antimicrobial activity)	G B	S. epidermidis and MRSA and C. jeikeium and C. jejuni	–	–	MRSA (S)	–	–	–	–	–	–	–	–	–	–
PF-051 (RFFNFEIKKSTKVDYVFAHVDLSDV; Peptide with targeting and/or antimicrobial activity)	G B	S. epidermidis and M. luteus and P. aeruginosa and C. albicans and MRSA and S. pneumoniae and E. faecalis	–	M. luteus (C)	MRSA (D)	S. epidermidis (D)	S. mutans (D)	S. pneumoniae (D)	–	–	–	–	–	–	–
PF-052 (QELINEAVNLLVKSK; Peptide with targeting and/or antimicrobial activity)	G B	S. epidermidis and M. luteus and E. coli and MRSA and E. faecalis and C. jeikeium and C. jejuni	C. jeikeium (D)	M. luteus (A)	MRSA (R)	S. epidermidis (S)	–	–	–	–	–	–	–	–	–
PF-053 (KLFGQWGPELGSIYILPALIGSIILIAIVTLILRAMRK; Peptide with targeting and/or antimicrobial activity)	G B	S. epidermidis and M. luteus and E. coli and P. aeruginosa and C. albicans and MRSA and S. pneumoniae and E. faecalis	C. jeikeium (D)	M. luteus (D)	MRSA (D)	S. epidermidis (C)	–	S. pneumoniae (S)	B. subtilis (H)	C. albicans (A)	C. jejuni (D)	E. coli (A)	E. faecalis (A)	P. aeruginosa (A)	–
PF-058 (FADQSQDNA; Peptide with targeting and/or antimicrobial activity)	G B	S. epidermidis and M. luteus and E. coli and C. albicans and MRSA and C. jeikeium and C. jejuni	–	–	MRSA (M)	–	–	–	–	–	–	–	–	–	–
PF-061 (GYNSYKAVQDVKTHSEEQRVTAKK; Peptide with targeting and/or antimicrobial activity)	G B	S. epidermidis; also recorded: S. pneumoniae	–	–	–	S. epidermidis (R)	–	S. pneumoniae (R)	B. subtilis (R)	–	C. jejuni (R)	–	–	–	–
PF-064 (DYYGKE; Peptide with targeting and/or antimicrobial activity)	G B	E. coli	–	–	MRSA (M)	S. epidermidis (D)	–	–	–	–	–	–	–	–	–
PF-066 (IKGTVKAVDETTVVITVNGHGTELTFEKPAIKQVDPS; Peptide with targeting and/or antimicrobial activity)	G B	M. luteus; also recorded: E. coli; also recorded: C. jeikeium	–	–	MRSA (S)	–	–	–	–	–	–	–	–	–	–
PF-073 (CPSVTMDACALLQKFDFCNNISHFRHFFAIKQPIER; Peptide with targeting and/or antimicrobial activity)	G B	–	C. jeikeium (D)	M. luteus (R)	MRSA (M)	S. epidermidis (R)	–	S. pneumoniae (D)	–	–	C. jejuni (D)	–	–	–	S. epidermidis and M. luteus and P. aeruginosa and C. albicans and MRSA and S. pneumoniae and E. faecalis
PF-127 (MLRYLSLFAVGLATGYAWGWIDGLAASLAV; Peptide with targeting and/or antimicrobial activity)	G B	–	C. jeikeium (A)	M. luteus (A)	–	S. epidermidis (M)	–	–	–	–	–	–	–	–	S. epidermidis and M. luteus and E. coli and P. aeruginosa and C. albicans and MRSA and S. pneumoniae and E. faecalis
PF-289 (MGRHLWNPSYFVATVSENTEEQIRKYRKNK; Peptide with targeting and/or antimicrobial activity)	G B	–	–	–	–	–	–	–	B. subtilis (C)	–	–	–	–	–	C. difficile
PF-360 (MEQKVKVIFVPRSKPDNQLKTFVSAVLFKA; Peptide with targeting and/or antimicrobial activity)	G B	–	–	–	MRSA (H)	S. epidermidis (S)	–	–	–	–	–	E. coli (C)	–	–	S. epidermidis; also recorded: B. subtilis; also recorded: E. coli; also recorded: P. aeruginosa; also recorded: C. albicans; also recorded: E. faecalis; also recorded: C. jeikeium; also recorded: C. jejuni
PF-362 (NIERILKEKVWMIRCVE; Peptide with targeting and/or antimicrobial activity)	G B	–	–	–	MRSA (C)	–	–	–	–	–	–	E. coli (C)	–	–	S. epidermidis; also recorded: E. coli; also recorded: P. aeruginosa; also recorded: C. albicans; also recorded: E. faecalis; also recorded: C. jejuni
